Values of other authors, collected in PMC10017685 (Nature Communications, 2023).
Read-outs that look alike come from different tables or passages of the source.

Tested on: human erythrocytes
Set-up: method as in DBAASP
Conditions: cited from earlier work
[1] = toxicity class label 1 or 0, meaning of the labels not given, DBAASP HC50 data, human erythrocytes, ref DBAASP

Row | Sequence | Class (dedicated toxicity dataset used for toxicity classifier evaluation) [1] | Class (dedicated toxicity dataset used for toxicity classifier evaluation)
1 | GWGSIFKHGRHAAKHIGHAAVNHYL [DBAASP_1420] | 0 | 
2 | GILGKLWEGVKSIF [DBAASP_8864] | 0 | 
3 | RIRWILRYWRWS [DBAASP_10701] | 0 | 
4 | GFKDLLKKAAKALVKTVLF [DBAASP_4906] | 1 | 
5 | RIRIRWIIR [DBAASP_17706] | 0 | 
6 | FPVTWPTKWRKG [DBAASP_9717] | 0 | 
7 | VKRFKKFFRKLKKSV [DBAASP_4328] | 0 | 
8 | FIHHIIGGLFSVGKHIHSLIHRRRR [DBAASP_17379] | 1 | 
9 | GLMKRIKTML [DBAASP_8625] | 0 | 
10 | GILSSWLKKLKKIIAK [DBAASP_8912] |  | 0
11 | FFGWLIKGAIHAGKAIHGLIHRRRH [DBAASP_3173] | 1 | 
12 | FPVTWKWWKWWKG [DBAASP_7114] | 0 | 
13 | LLGMIPLAISAISALSKL [DBAASP_3893] | 0 | 
14 | FLSIIAKVLGSLF [DBAASP_3104] | 1 | 
15 | GIGKHVGKALKGLKGLLKGLGES [DBAASP_3359] | 0 | 
16 | RWFKIQMQIRRWKNKK [DBAASP_8804] | 0 | 
17 | GIWDTIKSMGKVFAGAILQNL [DBAASP_700] | 1 | 
18 | GFKRIVQRIKDFLRNLV [DBAASP_6070] | 0 | 
19 | FLSLIPHIVSGVAALANHL [DBAASP_12391] | 0 | 
20 | GIMSSLMKKLKAHIAK [DBAASP_8894] | 0 | 
21 | ITEVITILLNRLTDRLEK [DBAASP_13425] | 0 | 
22 | KQKLAKLKAKLQKLKQKLAKL [DBAASP_10912] | 0 | 
23 | KIAKVALKALKIAKVALKAL [DBAASP_9753] | 0 | 

Row | Sequence | Class (dedicated toxicity dataset used for toxicity classifier evaluation) [1] | Class (dedicated toxicity dataset used for toxicity classifier evaluation)
24 | FWGKLWEGVKNAI [DBAASP_3480] | 0 | 
25 | MPLSWFFPRTWGKR [DBAASP_9722] | 0 | 
26 | FFPIIAGMAAKLIPSLFCKITKKC [DBAASP_4209] | 1 | 
27 | WCRRYRVLVRGVLVRYRRCW [DBAASP_13507] | 0 | 
28 | KKVLKAAA [DBAASP_7362] | 0 | 
29 | FLSAITSILGKFF [DBAASP_13350] | 0 | 
30 | ILPYKYPYYPYRR [DBAASP_4763] | 0 | 
31 | GLLKRIKWLL [DBAASP_3147] | 0 | 
32 | GIMSSLMKKLKKHIAK [DBAASP_8897] | 0 | 
33 | GWKDLLKGAAKALVKTVF [DBAASP_11233] | 0 | 
34 | GLLGPLLKIAAKVGKKLL [DBAASP_4925] | 0 | 
35 | GLLRASSVWGRKYYVDLAGCAKA [DBAASP_1639] | 0 | 
36 | GFKRIVQKIRDFLRNLV [DBAASP_11852] | 0 | 
37 | FPVTWGWWKWWKG [DBAASP_9714] | 0 | 
38 | WRRRRRRRR [DBAASP_8812] | 0 | 
39 | HFLGTLVKLAKKIL [DBAASP_5021] | 0 | 
40 | GLGSVLGKALKIGANLL [DBAASP_3821] | 0 | 
41 | WKKIWSKIKKLLK [DBAASP_7155] | 0 | 
42 | FLPIVGRLISGLL [DBAASP_5287] | 0 | 
43 | IFGAIWPLALGALKNLIK [DBAASP_9405] | 1 | 
44 | GILSSLWKKPKKIIAK [DBAASP_8919] | 0 | 
45 | GIMSSLMKKLAKIIAK [DBAASP_8900] | 0 | 
46 | FLSLIPKAISAISALINHF [DBAASP_12628] | 1 | 

Row | Sequence | Class (dedicated toxicity dataset used for toxicity classifier evaluation) [1] | Class (dedicated toxicity dataset used for toxicity classifier evaluation)
47 | GLFDVIKKVASVIGGL [DBAASP_1320] | 0 | 
48 | VRRFPYWWPFLRR [DBAASP_14259] | 0 | 
49 | KKKKKKKKKGGGLLALLALLA [DBAASP_13727] | 1 | 
50 | ILPILSLIGGLL [DBAASP_3346] | 0 | 
51 | KIGKALGKALKALGKALGKA [DBAASP_11230] | 1 | 
52 | FLKWALKWAAK [DBAASP_16467] | 0 | 
53 | SFLTTVKKLVTNLAAL [DBAASP_13626] | 0 | 
54 | KIAGKIAKIAGKIAKIAGKIA [DBAASP_691] |  | 0
55 | GIMSSLMKKLKKIIAK [DBAASP_8901] |  | 0
56 | GIMSSLMKKLKKIIKK [DBAASP_8904] |  | 0
57 | FPFLLSLIPSAISALKKL [DBAASP_18191] | 0 | 
58 | GVLKRIKTLV [DBAASP_8624] | 0 | 
59 | GLLKRIKILL [DBAASP_3144] | 0 | 
60 | GLLTRIKTLL [DBAASP_8596] | 0 | 
61 | ILKKLLSTAAGLLSNL [DBAASP_4360] | 0 | 
62 | GLKALKKVFQGIHEAIKLINNHVQ [DBAASP_6923] | 0 | 
63 | GLNALKKVFQGIHEAIKLINNHVK [DBAASP_6927] | 0 | 
64 | GLFDIWKKLRWRR [DBAASP_10054] | 0 | 
65 | FLPILASLAAKFGPKLFSLVTKKS [DBAASP_4418] | 0 | 
66 | GWRTLLKKAEVKTVGKLALKHYL [DBAASP_1409] | 0 | 
67 | ILPFKFPFFPFRR [DBAASP_4761] | 0 | 
68 | LLKKVLKAAA [DBAASP_7357] | 0 | 
69 | LWKIGKKIWRVLWNWR [DBAASP_17519] | 1 | 

Row | Sequence | Class (dedicated toxicity dataset used for toxicity classifier evaluation) [1] | Class (dedicated toxicity dataset used for toxicity classifier evaluation)
70 | RFRRLRKKTRKRLKKI [DBAASP_7143] | 0 | 
71 | KLLKKAGKLLKKAGKLLKKAG [DBAASP_13728] | 0 | 
72 | FLPLIASVAANLVPKIFCKITKKC [DBAASP_3564] | 0 | 
73 | GIKDWIKGAAKKLIKTVASHIANQ [DBAASP_2305] | 0 | 
74 | FPVTWRWWKWWKG [DBAASP_716] | 0 | 
75 | GLVGTLLGHIGKAILS [DBAASP_5370] | 0 | 
76 | GLNALKKVFQGIHEAIKLINNHVQ [DBAASP_3355] | 0 | 
77 | GFMSKVANFAKKFAKGGVNAIMNQK [DBAASP_5718] | 0 | 
78 | FFHHIFRGVVHVGKTIHRLVTG [DBAASP_9007] | 0 | 
79 | LLKKVLKAAA [DBAASP_7358] | 1 | 
80 | IKKILSKIKKLLK [DBAASP_7154] | 0 | 
81 | GLLKPLLKIAAKVGSNLL [DBAASP_2279] | 0 | 
82 | GFLGSLLKTGLKVGSNLL [DBAASP_2293] | 0 | 
83 | FFRLLFHGVHHGGGYLNAA [DBAASP_1428] | 0 | 
84 | FLPIVGRLISGIL [DBAASP_13347] | 0 | 
85 | SKVWRHWRRFWHRAHRKK [DBAASP_8105] | 0 | 
86 | KWCVYAYVKVKGVLVKYKKCW [DBAASP_2027] | 0 | 
87 | FWSTLLSIGKSLL [DBAASP_18163] | 1 | 
88 | RRWRIVVIRVRR [DBAASP_1204] |  | 0
89 | FFHHIFRGIVHVGKTVHRLVTG [DBAASP_9008] | 0 | 
